Measurements reported in publication PMC9029992, “New α-galactosidase-inhibiting aminohydroxycyclopentanes” (RSC Advances, 2021).
Like-named read-outs stand apart in the source and are kept apart here.

Legend:
[1] = molecular target: α-glucosidase from S. cerevisiae (GH 13); set-up: method as in PMID 2825997; settings: yeast; read-out: Ki α-Glc (yeast); cited from earlier work
[2] = test system: α-galactosidase from E. coli (GH 36); settings: cited from earlier work
[3] = molecular target: T1, α-galactosidase from green coffee beans (gcb, GH 27) (Coffea arabica, UniProt Q42656); settings: cited from earlier work
T1 construct: Green coffee bean α-galactosidase: 50 mM sodium phosphate buffer (pH 7); from tissue; host or cells: green coffee beans

[4] = molecular target: T2, Fabrazyme® (commercial recombinant lysosomal α-galactosidase, GH 27) (Homo sapiens, UniProt P06280); settings: cited from earlier work
T2 construct: purchased
T2 sequence (P06280 32-429): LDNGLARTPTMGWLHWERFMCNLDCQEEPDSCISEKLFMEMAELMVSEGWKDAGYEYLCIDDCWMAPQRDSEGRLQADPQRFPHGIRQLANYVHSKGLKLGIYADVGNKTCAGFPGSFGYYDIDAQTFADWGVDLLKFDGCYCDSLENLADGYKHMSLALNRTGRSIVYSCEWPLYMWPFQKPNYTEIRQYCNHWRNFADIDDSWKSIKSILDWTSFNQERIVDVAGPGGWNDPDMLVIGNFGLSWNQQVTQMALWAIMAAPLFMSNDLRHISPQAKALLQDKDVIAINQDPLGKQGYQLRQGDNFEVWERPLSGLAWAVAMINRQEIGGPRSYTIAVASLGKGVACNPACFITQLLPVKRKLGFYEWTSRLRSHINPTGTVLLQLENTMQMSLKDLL

β-glucosidase (almonds) = molecular target: β-glucosidase (almonds); set-up: method as in PMID 15064801; settings: reported in literature, read-out: inhibitory activity against β-glucosidase; cited from earlier work
[5] = test system: bovine liver α-galactosidase; set-up: method as in PMID 15858658; settings: cited from earlier work
[6] = molecular target: T2, Fabrazyme® (commercial recombinant lysosomal α-galactosidase, GH 27); test: Ki determination with Fabrazyme (acid α-galactosidase); assay type: biochemical; settings: pH 5.5, substrate Gal-α-dNP, room temperature
Experimental: (§1) Kinetic studies were performed at room temperature in an appropriate buffer for each enzyme (specific conditions can be found below). All reactions were performed in half-area 96-well-plates (Corning) and monitored with a Synergy H1 plate reader (BioTek). In each experiment, the appropriate concentration of the enzyme was incubated with different concentrations of the inhibitors for 2–5 minutes before initiating the reaction by the addition of the glycoside substrate. The initial rate was then measured by monitoring the increase in, either absorbance at 405 nm (where the aglycone is either p-nitrophenol (pNP) or 2,4-dinitrophenol (dNP)) or fluorescence at 365/455 nm (where the aglycone is 4-methylumbelliferone (MU)) for up to five minutes. Ki determinations were performed using two different substrate concentrations. For each substrate concentration, a range of three to six inhibitor concentrations was used. Dixon plots (1/v vs. [I]) were constructed to validate the use of competitive inhibition model and to assess the fit of the data. The data were then fit to a competitive inhibition model using non-linear regression analysis with Grafit 7.0.0. (Erithacus Software).

[7] = molecular target: lac Z β-galactosidase from E. coli (GH 2) (Escherichia coli, UniProt P00722); test: Ki determination with E. coli lac Z β-galactosidase; assay type: biochemical; settings: pH 7, substrate Gal-β-pNP, room temperature
Experimental: as §1

[8] = molecular target: T1, α-galactosidase from green coffee beans (gcb, GH 27); test: Ki determination with green coffee bean α-galactosidase; assay type: biochemical; settings: pH 7, substrate Gal-α-MU, room temperature
Experimental: as §1

[9] = molecular target: T3, recombinant human lysosomal β-glucocerebrosidase (GCase, GH 30) (Homo sapiens, UniProt P04062); test: Ki determination with GCase (β-glucocerebrosidase); assay type: biochemical; settings: pH 7, substrate Glc-β-dNP, room temperature
T3 sequence (P04062 40-536): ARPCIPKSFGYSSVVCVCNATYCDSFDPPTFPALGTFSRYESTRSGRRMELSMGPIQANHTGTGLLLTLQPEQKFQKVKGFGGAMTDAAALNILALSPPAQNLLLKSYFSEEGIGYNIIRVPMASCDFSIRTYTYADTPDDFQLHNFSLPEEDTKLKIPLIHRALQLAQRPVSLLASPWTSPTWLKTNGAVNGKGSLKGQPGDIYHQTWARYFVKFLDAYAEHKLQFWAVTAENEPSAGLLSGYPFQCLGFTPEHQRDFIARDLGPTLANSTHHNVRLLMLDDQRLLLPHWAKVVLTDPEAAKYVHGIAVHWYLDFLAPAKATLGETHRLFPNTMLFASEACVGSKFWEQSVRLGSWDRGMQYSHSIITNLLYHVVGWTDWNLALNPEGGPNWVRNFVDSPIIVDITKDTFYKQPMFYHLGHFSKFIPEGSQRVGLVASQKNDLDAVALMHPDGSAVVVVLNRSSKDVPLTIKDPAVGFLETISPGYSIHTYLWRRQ
Experimental: as §1

[10] = molecular target: α-glucosidase from S. cerevisiae (GH 13); test: Ki determination with S. cerevisiae α-glucosidase; assay type: biochemical; settings: pH 7, substrate Glc-α-pNP, room temperature; read-out: Ki S. cer. (α-Glc) (GH 13)
Experimental: as §1
S. cerevisiae α-glucosidase: 50 mM sodium phosphate buffer (pH 7). Substrate: Glc-α-pNP, Km = 0.75 mM.

[11] = molecular target: T4, β-glucosidase/β-galactosidase from Agrobacterium sp. (Abg, GH 1) (Agrobacterium sp., UniProt P12614); test: Ki determination with Agrobacterium sp. β-glucosidase (Abg); assay type: biochemical; settings: pH 7, substrate Gal-β-pNP, room temperature; read-out: Ki Abg (β-Glc/β-Gal) (GH 1)
T4 sequence (P12614 1-459): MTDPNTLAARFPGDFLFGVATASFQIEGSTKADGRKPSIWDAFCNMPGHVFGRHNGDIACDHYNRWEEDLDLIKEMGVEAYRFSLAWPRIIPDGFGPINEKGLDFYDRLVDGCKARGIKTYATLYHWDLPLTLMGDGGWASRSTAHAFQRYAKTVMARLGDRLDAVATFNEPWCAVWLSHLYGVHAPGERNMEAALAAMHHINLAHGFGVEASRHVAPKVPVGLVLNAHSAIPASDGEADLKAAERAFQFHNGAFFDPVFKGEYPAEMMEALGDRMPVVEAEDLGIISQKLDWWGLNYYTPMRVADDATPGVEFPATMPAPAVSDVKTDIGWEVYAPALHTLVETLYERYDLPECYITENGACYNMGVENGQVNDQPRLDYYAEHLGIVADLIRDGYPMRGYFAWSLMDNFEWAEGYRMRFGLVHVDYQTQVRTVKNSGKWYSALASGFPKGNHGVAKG
Experimental: as §1
Agrobacterium sp. β-glucosidase:[48,49]

[12] = read-out: Ki gcb α-galactosidase

T1 sequence (Q42656 16-378): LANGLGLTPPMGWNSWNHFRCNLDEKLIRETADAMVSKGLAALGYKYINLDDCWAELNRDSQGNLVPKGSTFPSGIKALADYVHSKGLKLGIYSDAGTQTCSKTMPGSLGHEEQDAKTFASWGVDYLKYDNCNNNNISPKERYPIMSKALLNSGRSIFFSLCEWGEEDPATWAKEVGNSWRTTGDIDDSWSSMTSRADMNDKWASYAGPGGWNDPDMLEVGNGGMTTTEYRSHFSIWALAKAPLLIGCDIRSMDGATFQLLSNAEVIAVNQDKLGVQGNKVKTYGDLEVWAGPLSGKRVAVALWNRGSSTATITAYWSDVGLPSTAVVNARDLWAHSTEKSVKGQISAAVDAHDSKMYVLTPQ
Chain of lac Z β-galactosidase from E. coli (GH 2) (P00722 2-1024 limits assumed): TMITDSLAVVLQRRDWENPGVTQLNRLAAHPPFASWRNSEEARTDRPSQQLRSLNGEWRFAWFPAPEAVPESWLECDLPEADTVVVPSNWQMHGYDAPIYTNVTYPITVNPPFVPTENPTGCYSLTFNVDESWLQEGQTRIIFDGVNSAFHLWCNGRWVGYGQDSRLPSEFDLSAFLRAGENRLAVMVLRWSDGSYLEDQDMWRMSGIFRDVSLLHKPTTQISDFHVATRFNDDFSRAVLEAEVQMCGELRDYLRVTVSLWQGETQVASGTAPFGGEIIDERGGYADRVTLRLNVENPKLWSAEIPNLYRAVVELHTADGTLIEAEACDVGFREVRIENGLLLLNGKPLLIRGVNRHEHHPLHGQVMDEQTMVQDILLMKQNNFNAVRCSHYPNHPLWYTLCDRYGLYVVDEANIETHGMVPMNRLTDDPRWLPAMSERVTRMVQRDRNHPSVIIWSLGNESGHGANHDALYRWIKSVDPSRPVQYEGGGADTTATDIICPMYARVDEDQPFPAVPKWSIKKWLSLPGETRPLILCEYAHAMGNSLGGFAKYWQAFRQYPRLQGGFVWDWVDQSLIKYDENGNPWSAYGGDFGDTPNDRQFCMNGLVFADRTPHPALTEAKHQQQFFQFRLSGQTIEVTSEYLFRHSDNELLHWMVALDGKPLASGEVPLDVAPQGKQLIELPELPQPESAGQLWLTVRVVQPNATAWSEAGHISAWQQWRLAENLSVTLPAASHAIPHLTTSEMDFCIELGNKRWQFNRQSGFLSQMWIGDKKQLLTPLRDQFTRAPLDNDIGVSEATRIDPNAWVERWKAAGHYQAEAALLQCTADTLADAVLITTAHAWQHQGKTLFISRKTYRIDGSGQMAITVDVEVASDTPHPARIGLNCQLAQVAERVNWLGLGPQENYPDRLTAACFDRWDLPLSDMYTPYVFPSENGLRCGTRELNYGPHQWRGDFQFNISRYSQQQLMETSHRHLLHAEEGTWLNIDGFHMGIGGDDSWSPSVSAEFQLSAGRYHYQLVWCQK

SMILES: OC[C@H]1NC[C@H](O)[C@@H](O)[C@H]1O [compound 1, 1,5-dideoxy-1,5-imino-D-galactitol]
- Ki [1]: > 1000 µM
- IC50 ([2]; read-out: IC50 α-galactosidase from E. coli): 0.24 µM

SMILES: OC[C@@H]1C[C@@H](O)[C@@H](O)[C@@H](CO)N1 [compound 2]
- IC50 ([3]; read-out: IC50 gcb galactosidase): 0.06 µM
- IC50 ([2]; read-out: IC50 E. coli enzyme): 32 µM

SMILES: OC[C@H]1CNC[C@@H](O)[C@H]1O [compound 3, 4-epi-isofagomine]
- IC50 ([3]; read-out: IC50 gcb): 200 µM

SMILES: CCCCCCN1C[C@@H](O)[C@@H](O)[C@@](F)(CO)C1 [compound 4]
- Ki ([4]; read-out: Ki Fabrazyme®): 116 µM
- Ki [3, 12]: 0.5 µM

SMILES: N[C@H]1C[C@H](CO)[C@H](O)[C@H](O)[C@H]1O [compound 5, 4-epi-validamine]
- IC50 ([3]; read-out: IC50 gcb): 500 µM
- IC50 ([2]; read-out: IC50 E. coli): 890 µM

SMILES: N[C@@H]1[C@H](O)[C@@H](O)[C@@H](O)[C@]2(CO)C[C@H]12 [compound 6]
- Ki ([3]; read-out: Ki gcb): 0.54 µM
- IC50 ([2]; read-out: IC50 E. coli): 80 µM

SMILES: OC[C@H]1NC[C@@H](O)[C@H]1O [compound 7, 1,4-dideoxy-1,4-imino-D-lyxitol]
- Ki [3, 12]: 0.13 µM

SMILES: O=S1(=O)N[C@@H]2[C@H](O)[C@@H](O)[C@@H](O)[C@@H](CO)[C@@H]2O1 [compound 11]
- IC50 ([4]; as printed in Fig. 1): 110 µM
- Ki ([4]; read-out: Ki Fabrazyme® (α-Gal) (GH 27)): 110 µM

SMILES: OC[C@@H]1[C@H](O)[C@H](O)[C@@H](O)[C@H]1NCc1ccccc1 [compound 12]
- Ki (β-glucosidase (almonds)): 0.51 µM
- Ki [3, 12]: 0.43 µM
- inhibitory activity against bovine liver α-galactosidase [5]: does not show any inhibitory activity

SMILES: N[C@@H]1[C@H](O)[C@@H](O)[C@@H](O)[C@H]1CO [compound 22, (1S,2S,3S,4S,5R)-4-Amino-5-(hydroxymethyl)cyclopentane-1,2,3-triol]
- Ki [6]: 9.5 ± 1.9 µM
- Ki [7]: 200 ± 90 µM
- Ki [8]: 6.7 ± 0.9 µM
- Ki [9]: 18 ± 3 µM
- Ki ([3]; read-out: Ki gcb (α-Gal) (GH 27) (converted)): 12 µM
- Ki [10]: 160 ± 60 µM
- Ki [11]: 0.014 ± 0.003 µM

SMILES: CCCCCCN[C@@H]1[C@H](O)[C@@H](O)[C@@H](O)[C@H]1CO [compound 23, (1S,2S,3S,4S,5R)-4-(n-Hexylamino)-5-(hydroxymethyl)cyclopentane-1,2,3-triol]
- Ki [6]: 4.9 ± 0.9 µM
- Ki [7]: 120 ± 20 µM
- Ki [8]: 0.19 ± 0.05 µM
- Ki [9]: 40 ± 8 µM
- Ki [10]: 130 ± 40 µM
- Ki [11]: 0.013 ± 0.003 µM

SMILES: CCCCCCCCCN[C@@H]1[C@H](O)[C@@H](O)[C@@H](O)[C@H]1CO [compound 24, (1S,2S,3S,4S,5R)-4-(n-Nonylamino)-5-(hydroxymethyl)cyclopentane-1,2,3-triol]
- Ki [6]: 0.52 ± 0.21 µM
- Ki [7]: 23 ± 7 µM
- Ki [8]: 0.25 ± 0.05 µM
- Ki [9]: 1.2 ± 0.5 µM
- Ki [10]: 73 ± 17 µM
- Ki [11]: 0.0037 ± 0.0016 µM

SMILES: CN(C)c1cccc2c(S(=O)(=O)NCCCCCCN[C@@H]3[C@H](O)[C@@H](O)[C@@H](O)[C@H]3CO)cccc12 [compound 27, 5-(Dimethylamino)-N-(6-(((1S,2S,3S,4S,5R)-2,3,4-trihydroxy-5-(hydroxymethyl)cyclopentyl)amino)hexyl)naphthalene-1-sulfonamide]
- Ki [6]: 4.4 ± 1.1 µM
- Ki [7]: 7.8 ± 4.6 µM
- Ki [8]: 0.14 ± 0.04 µM
- Ki [9]: 0.63 ± 0.09 µM
- Ki [10]: 16 ± 4 µM
- Ki [11]: 0.005 ± 0.001 µM

SMILES: Cc1c(OCC(F)(F)F)ccnc1C[S+]([O-])c1nc2ccccc2[nH]1 (stereo not shown) [lansoprazole]
- IC50 ([3]; read-out: IC50 gcb α-galactosidase): 6.4 µM
